Values joined by “and” are separate entries in the source; they are usually repeats but may differ in a detail not shown here. Identical values can stand only once. Like-named read-outs stand apart in the source and are kept apart here.
Key:
HEK293 = assay: Cell growth inhibition assay (resazurin, 48 h); assay type: cell-based; conditions: Homo sapiens, HEK293, 48 h
HT-29 = assay: Cell growth inhibition assay (resazurin, 48 h); assay type: cell-based, human; conditions: HT-29, 48 h
Description: RPMI 8226 (CCL-155), HT-29 (HTB-38), and B16-F10 (CRL-6475) cells were purchased from ATCC. RPMI 8226 cells were maintained in RPMI 1640 media supplemented with 10% (v/v) FBS, 2 mM L-glutamine, 1 mM sodium pyruvate and Penicillin/Streptomycin at 100 IU/ml and 100 μg/ml, respectively. HT-29 cells were maintained in McCoys 5A supplemented with 10% (v/v) FBS, 2 mM L-glutamine, 1 mM sodium pyruvate, 1% (v/v) non-essential amino acids, 10 mM HEPES and Penicillin/Streptomycin at 100 IU/ml and 100 μg/ml, respectively. B16-F10 cells were maintained in DMEM supplemented with 10% (v/v) FBS, 2 mM L-glutamine, 10 mM HEPES and Penicillin/Streptomycin at 100 IU/ml and 100 μg/ml, respectively.
RPMI 8226 cells were seeded at 2×10^4 cells/well in 90 μl RPMI media containing 10% (v/v) FBS or 1% (v/v) FBS into 96 well black-walled, clear-bottom tissue culture plates. […] Formulae II-16, II-17 and Formula II-18 were serially diluted in media containing 1% or 10% FBS and added in triplicate to the test wells. […] The final concentration of Formula II-18 ranged from 2 μM to 630 pM.

MDA-MB-231 = assay: Cell growth inhibition assay (resazurin, 48 h); assay type: cell-based, human; conditions: MDA-MB-231, 48 h
MIA PaCa-2 = assay: Cell growth inhibition assay (resazurin, 48 h); assay type: cell-based; conditions: Homo sapiens, MIA PaCa-2, 48 h
[1] = molecular target: T1, 20S proteasome chymotrypsin-like activity in PC-3 cells (Homo sapiens, UniProt P28074); assay: Chymotrypsin-like activity of 20S proteasomes in treated PC-3 cells; assay type: cell-based; conditions: 5 nM, 1 hr
T1 construct: PC-3 (ATCC, CRL-1435), the human prostate cancer cell line; host or cells: PC-3
T1 sequence (P28074 60-263): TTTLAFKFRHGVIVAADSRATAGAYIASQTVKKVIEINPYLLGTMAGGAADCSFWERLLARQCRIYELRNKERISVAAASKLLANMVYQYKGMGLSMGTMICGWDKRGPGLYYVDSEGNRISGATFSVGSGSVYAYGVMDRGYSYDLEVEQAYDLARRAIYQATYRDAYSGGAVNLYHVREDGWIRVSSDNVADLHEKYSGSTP
Description: PC-3 (ATCC, CRL-1435), the human prostate cancer cell line, was cultured in F12K medium supplemented with 2 mM L-glutamine, 100 units/ml penicillin, 100 μg/ml streptomycin and 10% heat inactivated fetal bovine serum at 37° C., 5% CO2 and 95% humidified air. […] DMSO was used as the vehicle control at a final concentration of 0.1%. Following 1 hr incubation of PC-3 cells with the compounds, the cells were washed 3× with ice-cold 1× Dulbecco's Phosphate-Buffered Saline (DPBS, Mediatech, Herndon, Va.). […] Cell debris was pelleted by centrifugation at 14,000 rpm for 10 min, 4° C. and supernatants (=cell lysates) were transferred to a new tube. Protein concentration was determined by the BCA protein assay kit (Pierce Biotechnology, Rockford, Ill.). […] The released coumarin (AMC) was measured fluorometrically by using λex=390 nm and λem=460 nm. The assay was performed in a microtiter plate (Corning 3904) and followed kinetically with measurements every five minutes for 2 hr. The total amount of protein used for each assay was 20 μg. The final concentration of Suc-LLVY-AMC and DMSO was 20 μM and 0.2%, respectively. Results are presented as the percent inhibition of the 20S proteasome chymotrypsin-like activity relative to the DMSO control.

p21 and p27 = assay: Western blot of cell cycle regulatory proteins p21 and p27; assay type: cell-based, human; conditions: various concentrations, preliminary
Text: The ubiquitin-proteasome pathway is an essential proteolytic system involved in cell cycle control by regulating the degradation of cyclins and cyclin-dependent kinase (Cdk) inhibitors such as p21 and p27. Pagano, et al., Science 269:682 (1995), Kisselev, et al., Chem Biol 8:739 (2001), King, et al., Science 274:1652 (1996). Furthermore, p21 and p27 protein levels are increased in the presence of proteasome inhibitors. Fukuchi, et al., Biochim Biophys Acta 1451:206 (1999), Takeuchi, et al, Jpn J Cancer Res 93:774 (2002).
The Western blots presented in FIG. 33 were reprobed using antibodies against p21 and p27 to determine the endogenous level of each protein and anti-Tubulin antibody was used to confirm equal loading of protein.

PC-3 cells = assay: PARP and Pro-Caspase 3 cleavage in PC-3 cells (western blot); assay type: cell-based, human; conditions: 100 nM; 0, 8 or 24 hours
Description: Total protein lysates were made and 20 μg of the lysates were then resolved under reducing/denaturing conditions and blotted onto nitrocellulose. The blots were then probed with anti-PARP or anti-caspase 3 antibodies followed by stripping and reprobing with an anti-actin antibody.

multiple myeloma cells = assay: Transwell migration assay, VEGF-induced migration; assay type: cell-based
Description: The compounds disclosed herein inhibit angiogenesis. […] The other compounds disclosed herein are tested in a transwell mighration assay and inhibit migration.

NF-κB/Luc 293 cells = assay: Viability of NF-κB/Luc 293 cells (resazurin, 24 hr); assay type: cell-based, human; conditions: ~7 nM
RAW264.7 cells = assay: cells; conditions: Mus musculus
[2] = tested on: 60 human tumor cell lines; assay: NCI screening panel of 60 human tumor cell lines (sulforhodamine B)

## C[C@@]12OC(=O)[C@]1([C@@H](O)[C@@H]1C=CCCC1)NC(=O)[C@@H]2CCCl [Formula II-16, Salinosporamide A]
HEK293
  EC50: 0.047 µM
HT-29
  EC50: 0.04 ± 0.026 µM
HT-29; Homo sapiens
  EC50: 0.047 µM
MDA-MB-231; Homo sapiens
  EC50: 0.067 µM
MDA-MB-231
  EC50: 0.087 ± 0.04 µM
MIA PaCa-2
  EC50: 0.046 µM
[1]
  % inhibition of the chymotrypsin-like activity of 20S proteasomes in PC-3 cell lysates: 69%
p21 and p27
  p21 and p27 protein levels: elevated
PC-3 cells
  cleavage of PARP: cleavage of PARP is noticeable at 24 hours
Multiple myeloma cells
  VEGF-induced migration of multiple myeloma cells: blocked
NF-κB/Luc 293 cells
  cell viability at the NF-κB EC50 concentration: did not affect cell viability
HL-60; HL-60
  % cytotoxicity: 88% and 91%
HL-60; HL-60, 48 h
  EC50: 0.03 µM
RAW264.7 cells; RAW264.7, read-out: EC50, inhibition of LeTx-mediated cytotoxicity
  EC50: < 0.004 µM
RAW264.7 cells; RAW264.7, read-out: cell-viability, compound + LeTx
  viability at […]: 82%
[2]; 60 cell, 48 h, read-out: mean GI50
  GI50: < 0.01 µM
[2]; SK-MEL-28, read-out: LC50
  CC50: < 0.01 µM
[2]; read-out: LC50
  CC50: < 0.01 µM
